# In patent US10039752B2 (Cipla Limited, priority 2016, dated 2018):
# Read-outs that look alike come from different tables or passages of the source.
# How the values were obtained:
# [1] = test system: PAXF 1986L, PAXF 546L, PAXF Capan-2, and PAXF MIA-Pa-Ca-2; assay: cells; conditions: Homo sapiens, 192 h, read-out: relative IC50 values, range over four cell lines
# Method: The clonogenic assay was carried out in a 96 well plate format using ultra low attachment plates. For each test cells were prepared as described above, and assay plates were prepared as follows: each test well contained a layer of semi-solid medium with tumor cells (50 μl), and a second layer of medium supernatant with or without test compounds (100 μl). […] The soft-agar layer was immediately covered with 90 μl of the same culture medium without agar. After 24 hour the test compounds were added after serial dilution in IMDM and transfer in cell culture medium, and left on the cells for the duration of the experiment (continuous exposure, 100 μL total drug overlay). Every plate included six untreated control wells and drug-treated groups in a layout as shown above. […] Within this period, ex vivo tumor growth led to the formation of colonies with a diameter of >50 μm. At the time of maximum colony formation, counts were performed with an automatic image analysis system (CellInsight NXT, Thermo Scientific). 48 hours prior to evaluation, vital colonies were stained with a sterile aqueous solution of 2-(4-iodophenyl)-3-(4-nitrophenyl)-5-phenyltetrazolium chloride (1 mg/ml, 100 μl/well).
# [2] = test system: human pancreatic cancer xenografts (PDX model PAXF 546); assay: In vivo animal efficacy study; design: species or system Nude mice; conditions: for Mean Tumor volume: methazolamide 60 mg/kg p.o., gemcitabine 50 mg/kg i.v. Q7D, in mm³; for tumor growth inhibition: methazolamide 60 mg/kg orally, gemcitabine 50 mg/kg i.v.
# [3] = test system: twelve selected human pancreatic cancer cell lines; assay: cells; conditions: for IC50: Homo sapiens, Pancreatic cancer cell
# From the text: (§1) PAXF 546L, PAXF 1986L, PAXF 1998L, PAXF 2005L and PAXF 2059L were established at Oncotest from the corresponding human patient derived xenograft. CAPAN-2, HUP-T3 and PA-TU-8902 were purchased from DSMZ (Braunschweig, Germany). PANC-1 was purchased from CLS Cell Line Services GmbH (Eppelheim, Germany). BxPC-3, HPAC and MIA-Pa-Ca-2 were purchased from ATCC (Rockville, Md., USA). Authenticity of cell lines was confirmed at the DSMZ by STR (short tandem repeat) analysis, a PCR based DNA-fingerprinting methodology. Cell lines were routinely passaged once or twice weekly and maintained in culture for up to 20 passages. All cells were grown at 37° C. in a humidified atmosphere with 5% CO2 in RPMI 1640 medium (25 mM HEPES, with L-glutamine, #FG1385, Biochrom, Berlin, Germany) supplemented with 10% (v/v) fetal calf serum (Sigma, Taufkirchen, Germany) and 0.1 mg/mL gentamicin (Life Technologies, Karlsruhe, Germany).
# (§2) The CellTiter-Blue® Cell Viability Assay (#G8081, Promega) was used according to manufacturer's instructions. Briefly, cells were harvested from exponential phase cultures, counted and plated in 96-well flat-bottom microtiter plates at a cell density of 6,000-20,000 cells/well depending on the cell line's growth rate. After a 24 hours recovery period to allow the cells to resume exponential growth, test compounds were added. […] After 96 hours treatment of cells, 20 μL/well CellTiter-Blue® reagent was added. Following an incubation period of up to four hours, fluorescence (FU) was measured by using the Enspire Multimode Plate Reader (excitation λ=531 nm, emission λ=615 nm). For calculations, the mean values of duplicate/quadruplicate (untreated control) data were used. Sigmoidal concentration-response curves were fitted to the data points (T/C values) obtained for each cell line using 4 parameter non-linear curve fit (Oncotest Warehouse Software).
# PAXF MIA-Pa-Ca-2 [4] = assay: cells; conditions: Homo sapiens, MIA PaCa-2, 96 h
# From the text: as §1, §2
# PAXF MIA-Pa-Ca-2 [5] = assay: cells; conditions: Homo sapiens
# Method: (§3) Cell lines were routinely passaged one or twice weekly.
# Tumor xenografts (patient-derived, as well as cell line-derived xenografts) were passaged as subcutaneous xenografts in NMRI nu/nu mice. […] The percentage of viable cells was determined in a Neubauer-hemocytometer using trypan blue exclusion. Aliquots of the cells were frozen down, and stored in liquid nitrogen. On each day of an experiment, a frozen aliquot of tumor cells was thawed and used for preparation of assay plates.
# PAXF 2005L = assay: In vitro 2-D assay (CellTiter-Blue cell viability, 96 h); assay type: cell-based; conditions: Homo sapiens, PAXF 2005, 96 hours treatment
# From the text: as §1, §2
# PAXF 1986L = assay: as above; assay type: cell-based; conditions: Homo sapiens, PAXF 1986, 96 hours treatment
# From the text: as §1, §2
# PAXF HPAC [6] = assay: as above; assay type: cell-based; conditions: Homo sapiens, 96 hours treatment
# From the text: as §1, §2
# PAXF 1998L = assay: as above; assay type: cell-based; conditions: Homo sapiens, PAXF 1998, 96 hours treatment
# From the text: as §1, §2
# PAXF 2059L = assay: as above; assay type: cell-based; conditions: Homo sapiens, PAXF 2059, 96 hours treatment
# From the text: as §1, §2
# PAXF 546L = assay: as above; assay type: cell-based; conditions: Homo sapiens, PAXF 546, 96 hours treatment
# From the text: as §1, §2
# PAXF BxPC-3 [7] = assay: as above; assay type: cell-based; conditions: Homo sapiens, PAXF BxPC-3, 96 hours treatment
# From the text: as §1, §2
# PAXF PANC-1 [8] = assay: as above; assay type: cell-based; conditions: Homo sapiens, PAXF PANC-1, 96 hours treatment
# From the text: as §1, §2
# PAXF PA-TU-8902 [9] = assay: as above; assay type: cell-based; conditions: Homo sapiens, PaTu 8902, PAXF PA-TU-8902, 96 hours treatment
# From the text: as §1, §2
# PAXF CAPAN-2 [10] = assay: as above; assay type: cell-based; conditions: Homo sapiens, PAXF CAPAN-2, 96 hours treatment
# From the text: as §1, §2
# PAXF HUP-T3 = assay: as above; assay type: cell-based; conditions: Homo sapiens, PAXF HUP-T3, 96 hours treatment
# From the text: as §1, §2
# PAXF HPAC [11] = assay: In vitro 3D clonogenic assay; assay type: cell-based; conditions: Homo sapiens
# From the text: as §3
# PAXF 1982 = assay: In vitro 3D clonogenic assay; assay type: cell-based; conditions: Homo sapiens
# From the text: as §3
# PAXF 546 = assay: In vitro 3D clonogenic assay; assay type: cell-based; conditions: Homo sapiens
# From the text: as §3
# PAXF 1986 = assay: In vitro 3D clonogenic assay; assay type: cell-based; conditions: Homo sapiens
# From the text: as §3
# PAXF 2059 = assay: In vitro 3D clonogenic assay; assay type: cell-based; conditions: Homo sapiens
# From the text: as §3
# PAXF BxPC-3 [12] = assay: In vitro 3D clonogenic assay; assay type: cell-based; conditions: Homo sapiens
# From the text: as §3
# PAXF PANC-1 [13] = assay: In vitro 3D clonogenic assay; assay type: cell-based; conditions: Homo sapiens
# From the text: as §3
# PAXF PA-TU-8902 [14] = assay: In vitro 3D clonogenic assay; assay type: cell-based; conditions: Homo sapiens
# From the text: as §3
# PAXF 2005 = assay: In vitro 3D clonogenic assay; assay type: cell-based; conditions: Homo sapiens
# From the text: as §3
# PAXF CAPAN-2 [15] = assay: In vitro 3D clonogenic assay; assay type: cell-based; conditions: Homo sapiens
# From the text: as §3
# [16] = test system: 11 human tumor xenograft-derived cell suspensions or tumor cell lines of pancreatic cancer; assay: In vitro 3D clonogenic assay, whole panel (geometric mean); assay type: cell-based
# From the text: as §3
compound,measurement,setting,value
"Nc1ccn([C@@H]2O[C@H](CO)[C@@H](O)C2(F)F)c(=O)n1 [Gemcitabine, gemcitabine]",IC50,[1],0.013 to 0.062 µM
same,Mean Tumor volume,[2]; day 1,119.84
same,Mean Tumor volume,[2]; day 3,172.26
same,Mean Tumor volume,[2]; day 9,214.28
same,Mean Tumor volume,[2]; day 12,262.19
same,Mean Tumor volume,[2]; day 15,312.84
same,Mean Tumor volume,[2]; day 18,334.59
same,Mean Tumor volume,[2]; day 21,382.57
same,Mean Tumor volume,[2]; day 24,454.56
same,Mean Tumor volume,[2]; day 28,592.69
same,Mean Tumor volume,[2]; day 31,648.88
same,Mean Tumor volume,[2]; day 34,696.91
same,tumor growth inhibition,[2],61%
"CC(=O)N=c1sc(S(N)(=O)=O)nn1C [Methazolamide, N-[5-(aminosulfonyl)-3-methyl-1,3,4-thiadiazol-2(3H)-ylidene]acetamide]",IC50,[1],297 to 806 µM
same,"activity, shape of concentration-effect curves","[3]; 2-D, all cell lines tested",concentration-dependent activity with sigmoidal concentration-effect curves
same,IC50,"[3]; read-out: Absolute IC50, Geometric Mean",1840 µM
same,IC50,"[3]; read-out: Individual IC50 values, range over cell lines",726 to 5350 µM
same,IC50,"[3]; read-out: Relative IC50, Geometric Mean",1880 µM
same,IC50,PAXF MIA-Pa-Ca-2 [4]; read-out: Absolute IC50,1520 µM
same,IC50,PAXF MIA-Pa-Ca-2 [4]; read-out: Relative IC50,1760 µM
same,IC50,"PAXF MIA-Pa-Ca-2 [5]; MIA PaCa-2, read-out: Absolute IC50",533 µM
same,IC50,"PAXF MIA-Pa-Ca-2 [5]; MIA PaCa-2, read-out: Relative IC50",489 µM
same,IC50,PAXF 2005L; read-out: Absolute IC50,1840 µM
same,IC50,PAXF 2005L; read-out: Relative IC50,1580 µM
same,IC50,PAXF 1986L; read-out: Absolute IC50,1850 µM
same,IC50,PAXF 1986L; read-out: Relative IC50,1670 µM
same,IC50,PAXF HPAC [6]; read-out: Absolute IC50,5350 µM
same,IC50,PAXF HPAC [6]; read-out: Relative IC50,5510 µM
same,IC50,PAXF 1998L; read-out: Absolute IC50,2510 µM
same,IC50,PAXF 1998L; read-out: Relative IC50,2230 µM
same,IC50,PAXF 2059L; read-out: Absolute IC50,2040 µM
same,IC50,PAXF 2059L; read-out: Relative IC50,1790 µM
same,IC50,PAXF 546L; read-out: Absolute IC50,2320 µM
same,IC50,PAXF 546L; read-out: Relative IC50,3050 µM
same,IC50,PAXF BxPC-3 [7]; read-out: Absolute IC50,1960 µM
same,IC50,PAXF BxPC-3 [7]; read-out: Relative IC50,2340 µM
same,IC50,PAXF PANC-1 [8]; read-out: Absolute IC50,1540 µM
same,IC50,PAXF PANC-1 [8]; read-out: Relative IC50,1590 µM
same,IC50,PAXF PA-TU-8902 [9]; read-out: Absolute IC50,1030 µM
same,IC50,PAXF PA-TU-8902 [9]; read-out: Relative IC50,1130 µM
same,IC50,PAXF CAPAN-2 [10]; read-out: Absolute IC50,2030 µM
same,IC50,PAXF CAPAN-2 [10]; read-out: Relative IC50,2040 µM
same,IC50,PAXF HUP-T3; read-out: Absolute IC50,726 µM
same,IC50,PAXF HUP-T3; read-out: Relative IC50,711 µM
same,Mean Tumor volume,[2]; day 1,94.47
same,Mean Tumor volume,[2]; day 3,121.60
same,Mean Tumor volume,[2]; day 9,151.64
same,Mean Tumor volume,[2]; day 12,189.82
same,Mean Tumor volume,[2]; day 15,253.64
same,Mean Tumor volume,[2]; day 18,341.73
same,Mean Tumor volume,[2]; day 21,470.79
same,Mean Tumor volume,[2]; day 24,583.90
same,Mean Tumor volume,[2]; day 28,718.08
same,Mean Tumor volume,[2]; day 31,836.82
same,Mean Tumor volume,[2]; day 34,916.02
same,tumor growth inhibition,[2],up to 50%
same,IC50,PAXF HPAC [11]; read-out: Absolute IC50,1360 µM
same,IC50,PAXF HPAC [11]; read-out: Relative IC50,1090 µM
same,IC50,PAXF 1982; read-out: Absolute IC50,703 µM
same,IC50,PAXF 1982; read-out: Relative IC50,725 µM
same,IC50,"PAXF 546; PAXF546, read-out: Absolute IC50",346 µM
same,IC50,"PAXF 546; PAXF546, read-out: Relative IC50",336 µM
same,IC50,PAXF 1986; read-out: Absolute IC50,464 µM
same,IC50,PAXF 1986; read-out: Relative IC50,486 µM
same,IC50,PAXF 2059; read-out: Absolute IC50,820 µM
same,IC50,PAXF 2059; read-out: Relative IC50,754 µM
same,IC50,PAXF BxPC-3 [12]; read-out: Absolute IC50,837 µM
same,IC50,PAXF BxPC-3 [12]; read-out: Relative IC50,808 µM
same,IC50,PAXF PANC-1 [13]; read-out: Absolute IC50,1760 µM
same,IC50,PAXF PANC-1 [13]; read-out: Relative IC50,1820 µM
same,IC50,"PAXF PA-TU-8902 [14]; PaTu 8902, read-out: Absolute IC50",2110 µM
same,IC50,"PAXF PA-TU-8902 [14]; PaTu 8902, read-out: Relative IC50",2580 µM
same,IC50,PAXF 2005; read-out: Absolute IC50,523 µM
same,IC50,PAXF 2005; read-out: Relative IC50,603 µM
same,IC50,PAXF CAPAN-2 [15]; read-out: Absolute IC50,568 µM
same,IC50,PAXF CAPAN-2 [15]; read-out: Relative IC50,620 µM
same,IC50,"[16]; read-out: Absolute IC50, Geometric mean",777 µM
same,IC50,"[16]; read-out: Relative IC50, Geometric mean",783 µM
